Holding throughout (type): cell-based
The subject of experiment [1] is LPA-induced MCP-1 in NRK-49F cells. Nature of the experiment: LPA-induced MCP-1 AlphaLISA assay. The note with it: Rattus norvegicus, final LPA 10 μM, 7 hours; for Emax: read-out: Maximum Inhibition. An outline of the steps: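 NRK-49F rat fibroblasts, serum-starved overnight, pretreated with compound for 30 min at 37 °C (1% DMSO final), then stimulated with 10 μM LPA final. MCP-1 in the supernatant was measured by mouse/rat CCL2 AlphaLISA. IC50 values came from four-parameter logistic fits of the ratio data.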
For orientation: In Alpha technology, singlet oxygen from a donor bead excites a nearby acceptor bead.

Experiment [2] concerns the target T1, LPAR1 (Homo sapiens, UniProt Q92633).
T1 construct: host or cells: U2OS
Kind of experiment: LPAR1 Arrestin Assay (arrestin reporter assay). The conditions noted are these: U2OS cells stably expressing the LPAR1 receptor, 200 nM 18:1 LPA (EC80); for Emax: read-out: Maximum Inhibition. As to the method:
One day prior to the experiment, frozen U2OS cells stably expressing the LPAR1 receptor (Life Technologies, Grand Island, N.Y., #K1519A) were thawed, centrifuged at 1,000 rpm for 5 minutes to remove DMSO, and resuspended in FreeStyle™ media (Gibco, Grand Island, N.Y.). Forty microliters of cells were plated into PDL-coated 384-well plates (Greiner Bio-One, Monroe, N.C.) at 10,000 cells/well, and then the plates were incubated overnight in humidified 5% CO2 at 37° C. Test compounds were dissolved in DMSO, and 12-point, 1:3 dilution CRCs were prepared in duplicate; daughter plates were prepared by aliquoting 0.8 μL/well of test compound dilutions into 384-well plates. On the day of the assay, the daughter plates were diluted to 6× stocks using HEPES-buffered HBSS, then 10 μL of 6× test compounds were added to the cells, and the plates were incubated at 37° C. for one hour. After this 1 hour incubation, 10 μL of a 6× stock of the LPAR1 agonist, 18:1 LPA (Avanti Polar Lipids, Alabaster, Ala.), was prepared in HEPES-buffered HBSS+0.1% fatty acid-free BSA (Sigma, St. Louis, Mo.). The 6×LPA was added to all wells for a final concentration of 200 nM, which corresponds to the 18:1 LPA EC80 in this arrestin assay. The final DMSO concentration in the assay plate was 0.1%, and the final BSA concentration was 0.02%. After addition of LPA to all wells, the assay plates were incubated in humidified 5% CO2 at 37° C. for five hours. During the incubation period, 6× dye from the LiveBLAzer™-FRET B/G with CCF4-AM kit (Life Technologies, Grand Island, N.Y.) was prepared according to manufacturers' instructions. At the end of the 5 hour compound incubation, 10 μL of 6× dye was added to each well, and the assay plate was incubated for two hours in the dark at room temperature. Throughout the assay procedure, all volume additions were performed with a Biomek® NX liquid handler (Beckman Coulter, Indianapolis, Ind.). After the 2 hour dye-load, fluorescence was measured on an EnVision® Multilabel Plate Reader (Perkin Elmer, Waltham, Mass.) with an excitation filter at 409/20 nm and emission filters at 460/40 nm and 530/30 nm. Data processing was performed as recommended by the LiveBLAzer™-FRET B/G with CCF4-AM kit manual; all test compound CRCs were performed in duplicate with n≥3.
On the technique in general: In a reporter assay the amount or activity of a reporter protein is the signal.

Experiment [3] deals with T1, LPAR1. Kind of experiment: LPAR1 FLIPR Assay. The note with it: U2OS cells stably expressing LPAR1, LPA (EC80), Calcium 6 FLIPR dye; for Emax: read-out: Maximum Inhibition. An outline of the steps:
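U2OS cells stably expressing LPAR1 were loaded with Calcium 6 dye for 2 h at 37° C, preincubated 3 min with compound (11-point 3-fold series), then stimulated with LPA at EC80. Fluorescence at 515-575 nm was recorded by FLIPR; IC50 came from four-parameter logistic fits of ratio data.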

Experiment [4] has as its target T1, LPAR1. Nature of the experiment: IP-One HTRF Assay. The note with it: U2OS cells stably expressing LPAR1, LPA stimulation, IP-One Tb HTRF kit; for Emax: read-out: Maximum Inhibition. On the procedure:
U2OS cells stably expressing LPAR1 (Life Technologies #K1519A) were plated at 20000 cells/well in growth medium (McCoy's 5A(Life Technologies #16600-082)) with 10% dFBS (Life Technologies #26400-036), 0.1 mM non-essential amino acids, 25 mM HEPES, 1 mM sodium pyruvate, 1% penicillin/streptomycin, 50 μg/mL hygromycin, and 100 μg/mL Geneticin® in tissue culture treated 384-well white plates (Greiner #781080) in humidified 5% CO2 at 37° C. overnight. On the day of the assay, culture medium was replaced with 30 μL/well of McCoy's 5A with 0.1% BSA. Cells were incubated in humidified 5% CO2 at 37° C. for 3 more hours. Compounds were 3-fold serial diluted from 2 mM for 11-points using dimethyl sulfoxide. 1 μL of compound in DMSO was diluted in 50 μL stimulation buffer from an IP-One Tb HTRF kit (Cisbio #62IPAPEB) immediately before assay. 15 μL/well of 1.33× compound in stimulation buffer was added to cells after removal of culture medium. After 20 minutes of incubation at 37° C., 5 μL/well of 8 μM LPA diluted in stimulation buffer with 0.1% fatty acid free BSA was added to cells. […]. To EC100 wells were added 4×20 μM LPA. To the cells were added 5 μL/well IP1-d2 conjugate and 5 μLwell IP1-K antibody after 2 hours of incubation at 37° C. Cells were incubated at room temperature for 1 hour (protected from light). The plate was then read at 665 nm and 615 nm using an EnVision® Multilabel Plate Reader. IC50 values were calculated from curve fits of the ratio data using a four-parameter logistic Hill equation (Assay Explorer 3.3 Client).
On the technique in general: In TR-FRET formats the signal depends on donor and acceptor labels being close together.

14 compounds from US20190119200A1, “TERTIARY AMIDES AND METHOD OF USE” (AbbVie Inc., priority 2016, published 2019) can be followed below.

Bounds are passed on as bounds.

T1 sequence (Q92633 whole entry): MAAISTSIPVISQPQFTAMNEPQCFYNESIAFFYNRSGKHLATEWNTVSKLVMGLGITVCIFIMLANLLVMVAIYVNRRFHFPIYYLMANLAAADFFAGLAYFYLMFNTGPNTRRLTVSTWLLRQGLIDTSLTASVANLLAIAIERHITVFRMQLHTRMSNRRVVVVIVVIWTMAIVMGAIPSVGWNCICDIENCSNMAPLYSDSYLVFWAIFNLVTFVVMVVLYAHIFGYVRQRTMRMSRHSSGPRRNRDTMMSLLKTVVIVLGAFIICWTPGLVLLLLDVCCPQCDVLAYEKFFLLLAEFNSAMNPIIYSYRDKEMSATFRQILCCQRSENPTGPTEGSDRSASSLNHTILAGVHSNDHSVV

A word on the IC50: it is the concentration needed to halve the response being measured. Regarding `COc1ccc(C2(C(=O)N(CCCCC(=O)O)CCCc3ccccc3)CC2)nc1` [Example 63, 5-{[1-(5-methoxypyridin-2-yl)cyclopropane-1-carbonyl](3-phenylpropyl)amino}pentanoic Acid], the IC50 in experiment [1] is 5530 nM; on LPAR1 [2], 3070 nM; on LPAR1 [3] it was 80 nM. In addition, the Emax in experiment [1] came out at 51%; on LPAR1 [2] it was 118%; at LPAR1 [3] it was 87%.

On to `COc1cc(C(=O)N(CCCc2ccc(F)cc2)CCOCC(=O)O)cc(OC)c1C` [Example 139, (2-{(3,5-dimethoxy-4-methylbenzoyl)[3-(4-fluorophenyl)propyl]amino}ethoxy)acetic Acid], for which the IC50 in experiment [1] was 3150 nM; against LPAR1 [2], 464 nM; on LPAR1 [3] it was 46 nM. The Emax was determined as 72% in experiment [1], 125% at LPAR1 [2] and 78% on LPAR1 [3].

For `COc1cc(OC)c(Cl)c(C(=O)N(CCCCC(=O)O)CCCc2ccccc2)c1` [Example 39, 5-[(2-chloro-3,5-dimethoxybenzoyl)(3-phenylpropyl)amino]pentanoic Acid], the IC50 in experiment [1] was determined as 318 nM; at LPAR1 [2], 1210 nM; on LPAR1 [3], 54 nM. Further, the Emax in experiment [1] worked out at 80%; at LPAR1 [2], 99%; on LPAR1 [3] it was 96%.

On to `COc1cc(C(=O)N(CCCCC(=O)O)CCCc2cccc(C)c2)cc(OC)c1C` [Example 11, 5-{(3,5-dimethoxy-4-methylbenzoyl)[3-(3-methylphenyl)propyl]amino}pentanoic Acid], for which the IC50 in experiment [1] came to 247 nM; at LPAR1 [3] it was 15 nM; on LPAR1 [4] it was 253 nM. Besides, the figures for the Emax (in experiment [1]; on LPAR1 [3]; at LPAR1 [4]) were 91%, 96% and 88%, respectively.

Turning to `COc1cc(C(=O)N(CCCc2ccccc2)CCOCCC(=O)O)cc(OC)c1C` [Example 56, 3-{2-[(3,5-dimethoxy-4-methylbenzoyl)(3-phenylpropyl)amino]ethoxy}propanoic Acid], the IC50 in experiment [1] worked out at 1240 nM; at LPAR1 [3] it was 21 nM; against LPAR1 [4] it was 424 nM. The Emax worked out at 79% in experiment [1], 95% on LPAR1 [3] and 100% at LPAR1 [4].

`COc1cc(OC)cc(C(=O)N(CCCCP(=O)(O)O)CCCc2ccccc2)c1` [Example 75, {4-[(3,5-dimethoxybenzoyl)(3-phenylpropyl)amino]butyl}phosphonic Acid]: the IC50 in experiment [1] was 3250 nM; at LPAR1 [3], 20 nM; against LPAR1 [4], 1070 nM. In addition, the Emax in experiment [1] amounted to 65%; at LPAR1 [3], 72%; at LPAR1 [4] it was 77%.

Consider `COc1cc(C(=O)N(CCCC(=O)O)CCCc2ccccc2)cc(OC)c1C` [Example 69, 4-[(3,5-dimethoxy-4-methylbenzoyl)(3-phenylpropyl)amino]butanoic Acid], for which the IC50 in experiment [1] is 1660 nM; at LPAR1 [3] it was above 30000 nM; against LPAR1 [4], 3820 nM. For the same compound, the Emax in experiment [1] stood at 62%; on LPAR1 [3], 38%; at LPAR1 [4] it was 85%.

For the compound `COc1cc(C(=O)N(CCCCCC(=O)O)CCCc2ccccc2)cc(OC)c1C` [Example 5, 6-[(3,5-dimethoxy-4-methylbenzoyl)(3-phenylpropyl)amino]hexanoic Acid], the values for the IC50 (in experiment [1]; at LPAR1 [3]; on LPAR1 [4]) were 286 nM, 27 nM and 313 nM, respectively. The Emax was determined as 97% in experiment [1], 97% on LPAR1 [3] and 105% on LPAR1 [4].

With `COc1cc(C(=O)N(CCCc2ccccc2)CC(=O)NC2(C(=O)O)Cc3ccccc3C2)cc(OC)c1C` [Example 1, 2-{[N-(3,5-dimethoxy-4-methylbenzoyl)-N-(3-phenylpropyl)glycyl]amino}-2,3-dihydro-1H-indene-2-carboxylic Acid], the IC50 stood at 1540 nM in experiment [1], 45 nM on LPAR1 [3] and 1210 nM on LPAR1 [4]. The Emax was determined as 66% in experiment [1], 74% on LPAR1 [3] and 75% on LPAR1 [4].

Consider `COc1cc(C(=O)N(CCCc2ccccc2)CCOCC2(C(=O)O)CC2)cc(OC)c1C` [Example 59, 1-({2-[(3,5-dimethoxy-4-methylbenzoyl)(3-phenylpropyl)amino]ethoxy}methyl)cyclopropane-1-carboxylic Acid], for which the IC50 in experiment [1] worked out at 127 nM; at LPAR1 [3] it was 23 nM; at LPAR1 [4], 449 nM. Moreover, the Emax in experiment [1] amounted to 93%; at LPAR1 [3], 100%; at LPAR1 [4] it was 88%.

In the case of `COc1cc(C(=O)N(CCCCC(=O)O)CCCc2ccc(C)s2)cc(OC)c1C` [Example 41, 5-{(3,5-dimethoxy-4-methylbenzoyl)[3-(5-methylthiophen-2-yl)propyl]amino}pentanoic Acid], the IC50 in experiment [1] was 335 nM; at LPAR1 [3], 22 nM; at LPAR1 [4], 191 nM. Further, the figures for the Emax (in experiment [1]; on LPAR1 [3]; at LPAR1 [4]) were 88%, 97% and 100%, respectively.

In the case of `COc1cc(C(=O)N(CCCc2ccccc2)CCCC(C)C(=O)O)cc(OC)c1C` (stereo not drawn) [Example 54, 5-[(3,5-dimethoxy-4-methylbenzoyl)(3-phenylpropyl)amino]-2-methylpentanoic Acid], the IC50 in experiment [1] was determined as 55 nM; on LPAR1 [3] it was 15 nM; on LPAR1 [4], 22 nM. Further, the results for the Emax (in experiment [1]; at LPAR1 [3]; on LPAR1 [4]) were 96%, 100% and 91%, respectively.

Turning to `COc1cc(C(=O)N(CCCc2c(F)cccc2F)CCOCC(=O)O)cc(OC)c1C` [Example 128, (2-{[3-(2,6-difluorophenyl)propyl](3,5-dimethoxy-4-methylbenzoyl)amino}ethoxy)acetic Acid], the half-inhibitory concentration (IC50) was 1080 nM in experiment [1], 23 nM on LPAR1 [3] and 1800 nM at LPAR1 [4]. For the same compound, the Emax in experiment [1] is 78%; on LPAR1 [3], 89%; at LPAR1 [4], 101%.

`COc1cc(OC)cc(C(=O)N(CCCc2ccccc2)CCCC(C)C(=O)O)c1` (stereo not drawn) [Example 98, 5-[(3,5-dimethoxybenzoyl)(3-phenylpropyl)amino]-2-methylpentanoic Acid]: the figures for the IC50 (in experiment [1]; at LPAR1 [3]; against LPAR1 [4]) were 4580 nM, 29 nM and 836 nM, respectively. Besides, the figures for the Emax (in experiment [1]; on LPAR1 [3]; at LPAR1 [4]) were 66%, 87% and 76%, respectively.
